# Data as given in ChEMBL document CHEMBL2429790, “Identification of 2-amino-5-aryl-pyrazines as inhibitors of human lactate dehydrogenase” (Bioorg Med Chem Lett, 2013).
# What was measured:
# [1] = molecular target: T1, L-lactate dehydrogenase A chain (Homo sapiens, UniProt P00338); experiment: Inhibition of human recombinant carboxy-terminal his-tagged LDHA (1 to 331) expressed in Escherichia coli using pyruvate as substrate assessed as disappearance of NADH after 10 mins by fluorescence assay
# [2] = molecular target: T1, L-lactate dehydrogenase A chain; experiment: Binding affinity to human recombinant carboxy-terminal his-tagged LDHA (1 to 331) expressed in Escherichia coli by surface plasmon resonance analysis in presence of NADH
# [3] = molecular target: L-lactate dehydrogenase B chain (Homo sapiens, UniProt P07195)
# Sequence of L-lactate dehydrogenase B chain (P07195 whole entry): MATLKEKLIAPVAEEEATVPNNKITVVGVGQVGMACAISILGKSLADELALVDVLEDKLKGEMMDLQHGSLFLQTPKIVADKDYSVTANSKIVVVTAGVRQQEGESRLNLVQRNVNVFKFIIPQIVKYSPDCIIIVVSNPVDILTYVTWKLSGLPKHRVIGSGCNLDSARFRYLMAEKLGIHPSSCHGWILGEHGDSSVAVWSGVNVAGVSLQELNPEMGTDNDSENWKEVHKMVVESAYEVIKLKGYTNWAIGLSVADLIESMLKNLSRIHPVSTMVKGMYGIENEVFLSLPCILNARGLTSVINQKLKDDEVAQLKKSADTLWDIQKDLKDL
# [4] = AUC (infinity) in Sprague-Dawley rat at 1.5 mg/kg, po; type: ADME, organism-based; design: time infinity, dose 1.5 mg/kg, route oral; settings: plasma
# [5] = molecular target: Cytochrome P450 2C9 (Homo sapiens, UniProt P11712); experiment: Inhibition of CYP2C9 (unknown origin) up to 10 uM; type: ADME
# Sequence of Cytochrome P450 2C9 (P11712 whole entry): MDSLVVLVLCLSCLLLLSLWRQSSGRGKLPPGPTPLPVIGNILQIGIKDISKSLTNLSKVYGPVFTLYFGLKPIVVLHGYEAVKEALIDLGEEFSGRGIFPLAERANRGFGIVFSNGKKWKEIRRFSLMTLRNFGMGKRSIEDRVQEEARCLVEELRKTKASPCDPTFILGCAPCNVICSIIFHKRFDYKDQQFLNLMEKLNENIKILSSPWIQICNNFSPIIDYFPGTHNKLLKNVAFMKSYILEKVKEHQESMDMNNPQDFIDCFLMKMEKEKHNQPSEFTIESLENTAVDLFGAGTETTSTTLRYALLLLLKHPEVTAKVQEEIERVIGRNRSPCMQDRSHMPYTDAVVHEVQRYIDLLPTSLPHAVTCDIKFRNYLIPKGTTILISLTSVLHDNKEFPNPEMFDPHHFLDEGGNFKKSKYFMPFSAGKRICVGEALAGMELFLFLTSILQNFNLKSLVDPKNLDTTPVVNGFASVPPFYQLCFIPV
# [6] = Oral bioavailability in Sprague-Dawley rat at 1.5 mg/kg; type: ADME, organism-based; settings: in vivo
# [7] = Permeability across apical to basolateral side in MDCK cells; type: ADME, cell-based, Canis lupus familiaris; settings: dog, read-out: permeability
# [8] = Aqueous kinetic solubility of the compound at pH 7.4; type: physicochemical; settings: read-out: Kinetic_solubility
# [9] = molecular target: Cytochrome P450 2C19 (Homo sapiens, UniProt P33261); experiment: Inhibition of CYP2C19 (unknown origin) up to 10 uM; type: ADME
# Sequence of Cytochrome P450 2C19 (P33261 whole entry): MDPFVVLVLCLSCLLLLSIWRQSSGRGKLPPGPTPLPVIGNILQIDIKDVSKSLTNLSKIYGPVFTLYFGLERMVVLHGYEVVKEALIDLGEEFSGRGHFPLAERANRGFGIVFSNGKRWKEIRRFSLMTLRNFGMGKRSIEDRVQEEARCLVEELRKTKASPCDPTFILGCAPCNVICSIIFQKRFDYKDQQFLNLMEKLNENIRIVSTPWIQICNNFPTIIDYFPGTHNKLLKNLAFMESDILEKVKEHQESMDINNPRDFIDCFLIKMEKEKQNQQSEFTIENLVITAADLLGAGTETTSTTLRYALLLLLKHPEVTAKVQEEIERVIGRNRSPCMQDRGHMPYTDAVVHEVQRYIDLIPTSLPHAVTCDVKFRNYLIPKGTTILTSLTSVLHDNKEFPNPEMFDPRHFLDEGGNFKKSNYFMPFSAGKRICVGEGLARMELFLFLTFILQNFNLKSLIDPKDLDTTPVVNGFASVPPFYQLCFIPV
# [10] = Cytotoxicity against human MCF7-neo/Her2 cells assessed as cell viability at 50 uM by Sytox Green/Hoescht 33342 staining assay; type: cell-based
# [11] = Cmax in Sprague-Dawley rat at 0.5 mg/kg, iv; type: ADME, organism-based; design: dose 0.5 mg/kg, route intravenous; settings: in vivo
# [12] = Plasma protein binding in human at 5 uM after 4 hrs by equilibrium dialysis method; type: ADME, cell-free; settings: read-out: PPB
# [13] = molecular target: T2, Cytochrome P450 1A2 (Homo sapiens, UniProt P05177); experiment: Inhibition of CYP1A2 (unknown origin) up to 10 uM; type: ADME
# T2 sequence (P05177 whole entry): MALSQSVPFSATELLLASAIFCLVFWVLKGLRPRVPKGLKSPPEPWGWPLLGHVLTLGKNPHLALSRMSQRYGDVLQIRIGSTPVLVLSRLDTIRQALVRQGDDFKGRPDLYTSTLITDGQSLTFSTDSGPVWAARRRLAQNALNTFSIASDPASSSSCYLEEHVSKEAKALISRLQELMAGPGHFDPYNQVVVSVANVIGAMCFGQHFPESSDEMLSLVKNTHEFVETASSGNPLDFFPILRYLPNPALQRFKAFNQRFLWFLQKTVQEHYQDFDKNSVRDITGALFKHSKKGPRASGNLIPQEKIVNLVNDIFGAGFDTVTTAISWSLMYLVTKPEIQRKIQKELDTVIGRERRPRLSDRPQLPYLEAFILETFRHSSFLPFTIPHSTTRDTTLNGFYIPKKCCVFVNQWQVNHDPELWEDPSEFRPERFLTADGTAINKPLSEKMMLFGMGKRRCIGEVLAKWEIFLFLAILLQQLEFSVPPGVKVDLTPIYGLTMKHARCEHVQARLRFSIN
# [14] = molecular target: Cytochrome P450 3A4 (Homo sapiens, UniProt P08684); experiment: Inhibition of CYP3A4 (unknown origin) up to 10 uM; type: ADME
# Sequence of Cytochrome P450 3A4 (P08684 whole entry): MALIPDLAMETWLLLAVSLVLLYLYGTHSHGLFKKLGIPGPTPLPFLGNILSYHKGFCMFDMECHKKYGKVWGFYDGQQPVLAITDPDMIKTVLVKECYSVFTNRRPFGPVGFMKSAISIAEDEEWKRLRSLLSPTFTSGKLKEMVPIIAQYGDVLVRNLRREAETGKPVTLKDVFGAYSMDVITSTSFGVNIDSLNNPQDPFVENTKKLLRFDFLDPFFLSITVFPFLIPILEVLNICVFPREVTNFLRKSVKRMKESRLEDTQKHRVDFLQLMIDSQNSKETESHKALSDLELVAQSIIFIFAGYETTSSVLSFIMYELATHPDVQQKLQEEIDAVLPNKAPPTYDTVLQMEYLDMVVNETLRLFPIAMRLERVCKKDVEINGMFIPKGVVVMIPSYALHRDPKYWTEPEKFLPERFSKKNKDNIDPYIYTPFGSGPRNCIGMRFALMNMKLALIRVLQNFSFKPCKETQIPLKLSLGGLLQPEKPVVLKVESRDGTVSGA
# [15] = Plasma protein binding in rat at 5 uM after 4 hrs by equilibrium dialysis method; type: ADME, cell-free; settings: read-out: PPB (converted)
# [16] = Half life in Sprague-Dawley rat at 1.5 mg/kg, po and 0.5 mg/kg, iv; type: ADME, organism-based; settings: in vivo
# [17] = Permeability across basolateral to apical side in MDCK cells; type: ADME, cell-based, Canis lupus familiaris; settings: dog, read-out: permeability
# [18] = molecular target: Cytochrome P450 2D6 (Homo sapiens, UniProt P10635); experiment: Inhibition of CYP2D6 (unknown origin) up to 10 uM; type: ADME
# Sequence of Cytochrome P450 2D6 (P10635 whole entry): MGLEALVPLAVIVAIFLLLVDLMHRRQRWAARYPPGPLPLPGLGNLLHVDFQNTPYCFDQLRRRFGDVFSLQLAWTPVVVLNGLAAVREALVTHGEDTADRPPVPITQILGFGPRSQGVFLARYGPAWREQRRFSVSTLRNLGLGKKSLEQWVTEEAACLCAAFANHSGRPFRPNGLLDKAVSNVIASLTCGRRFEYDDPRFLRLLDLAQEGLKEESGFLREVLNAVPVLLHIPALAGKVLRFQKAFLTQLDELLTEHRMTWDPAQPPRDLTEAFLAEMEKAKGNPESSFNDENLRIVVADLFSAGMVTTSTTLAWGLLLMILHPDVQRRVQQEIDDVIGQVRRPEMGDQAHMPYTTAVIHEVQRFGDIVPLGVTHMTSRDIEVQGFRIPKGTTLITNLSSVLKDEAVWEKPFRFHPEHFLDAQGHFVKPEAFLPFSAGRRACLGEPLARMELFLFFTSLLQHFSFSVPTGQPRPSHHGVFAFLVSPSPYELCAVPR
# [19] = Volume of distribution in Sprague-Dawley rat at 1.5 mg/kg, po and 0.5 mg/kg, iv; type: ADME, organism-based; settings: in vivo
# [20] = Plasma clearance in Sprague-Dawley rat at 1.5 mg/kg, po and 0.5 mg/kg, iv; type: ADME, organism-based
# [21] = molecular target: T1, L-lactate dehydrogenase A chain; experiment: Binding affinity to human recombinant carboxy-terminal his-tagged LDHA (1 to 331) expressed in Escherichia coli by surface plasmon resonance analysis in absence of NADH
Compound,IC50 [1],Kd [2],IC50 [3],also measured
C[C@H](Nc1nc(-c2cccc(C(=O)O)c2)cnc1N)c1ccccc1,> 100 µM,> 100 µM,–,–
C[C@@H](Nc1nc(-c2cccc(C(=O)O)c2)cnc1N)c1ccc(Cl)cc1,2 µM,5 µM,5 µM,–
C[C@H](c1ccccc1)N(C)c1nc(-c2cccc(C(=O)O)c2)cnc1N,> 100 µM,> 100 µM,–,–
C[C@@H](Oc1nc(-c2cccc(C(=O)O)c2)cnc1N)c1ccccc1,> 100 µM,> 100 µM,> 100 µM,–
C[C@@H](Nc1nc(-c2cccc(C(=O)O)c2)cnc1N)C1CCCCC1,3 µM,7 µM,–,–
Nc1ncc(-c2cccc(C(=O)O)c2)nc1NCC1CCCC1,19 µM,18 µM,–,–
COCCNc1nc(-c2cccc(C(=O)O)c2)cnc1N,> 100 µM,> 100 µM,–,–
C[C@@H](Nc1cc(-c2cccc(C(=O)O)c2)cnc1N)c1ccccc1,18 µM,29 µM,–,–
C[C@@H](Nc1nc(-c2cccc(C(=O)O)c2)ccc1N)c1ccccc1,> 100 µM,> 100 µM,–,–
C[C@@H](Nc1cncc(-c2cccc(C(=O)O)c2)n1)c1ccccc1,25 µM,> 100 µM,–,–
C[C@@H](Nc1nc(-c2cccc(C(=O)O)c2)cnc1O)c1ccccc1,> 100 µM,> 100 µM,> 100 µM,–
CNc1ncc(-c2cccc(C(=O)O)c2)nc1N[C@H](C)c1ccccc1,73 µM,> 100 µM,> 100 µM,–
CC(=O)Nc1ncc(-c2cccc(C(=O)O)c2)nc1N[C@H](C)c1ccccc1,> 100 µM,–,> 100 µM,–
C[C@@H](Nc1nc(-c2cccc(C(=O)O)c2)cnc1NS(C)(=O)=O)c1ccccc1,71 µM,–,> 100 µM,–
Cc1nc(N)c(N[C@H](C)c2ccccc2)nc1-c1cccc(C(=O)O)c1,91 µM,> 100 µM,> 100 µM,–
Cc1ccc(C(=O)O)cc1-c1cnc(N)c(N[C@H](C)c2ccc(Cl)cc2)n1,0.5 µM,–,–,"AUC(0-inf) [4]: 550 nM·h; inhibition (INH) [5]: Not Active; bioavailability [6]: 41%; Papp A→B [7]: 121 nm/s; solubility kinetic [8]: 81 µM; inhibition (INH) [9]: Not Active; Activity [10]: Non-toxic; Cmax [11]: 2.1 µM; fraction unbound at 4 h, 5 µM [12]: < 0.01; inhibition (INH) [13]: Not Active; inhibition (INH) [14]: Not Active; fraction unbound at 4 h, 5 µM [15]: 0.01; half-life [16]: 2.8 h; Papp B→A [17]: 103 nm/s; inhibition (INH) [18]: Not Active; Vd [19]: 1.4 L/kg; clearance [20]: 3.6 L/h/kg"
C[C@@H](Nc1nc(-c2csc(C(=O)O)c2)cnc1N)c1ccccc1,50 µM,33 µM,> 100 µM,–

Compound,IC50 [1],Kd [2],IC50 [3],also measured
Cc1c(C(=O)O)cccc1-c1cnc(N)c(N[C@H](C)c2ccccc2)n1,35 µM,> 100 µM,–,–
Cc1ccc(-c2cnc(N)c(N[C@H](C)c3ccccc3)n2)cc1C(=O)O,15 µM,29 µM,–,–
Cc1cc(C(=O)O)cc(-c2cnc(N)c(N[C@H](C)c3ccccc3)n2)c1,4 µM,7 µM,7 µM,–
Cc1ccc(C(=O)O)cc1-c1cnc(N)c(N[C@H](C)c2ccccc2)n1,2 µM,3 µM,6 µM,–
CC(C)c1ccc(C(=O)O)cc1-c1cnc(N)c(N[C@H](C)c2ccccc2)n1,2 µM,5 µM,7 µM,–
COc1ccc(C(=O)O)cc1-c1cnc(N)c(N[C@H](C)c2ccccc2)n1,2 µM,3 µM,7 µM,–
C[C@@H](Nc1nc(-c2cc(C(=O)O)ccc2Cl)cnc1N)c1ccccc1,2 µM,5 µM,8 µM,–
Nc1ncc(-c2cccc(C(=O)O)c2)nc1NCc1ccccc1,12 µM,22 µM,–,–
C[C@@H](Nc1nc(-c2cccc(C(=O)O)c2)cnc1N)c1ccccc1,4 µM,7 µM,–,"inhibition (INH) [5]: Not Active; Papp A→B [7]: 96 nm/s; solubility kinetic [8]: 137 µM; inhibition (INH) [9]: Not Active; fraction unbound at 4 h, 5 µM [12]: 0.01; inhibition (INH) [13]: Not Active; inhibition (INH) [14]: Not Active; Kd [21]: 857 µM; fraction unbound at 4 h, 5 µM [15]: 0.04; Papp B→A [17]: 40 nm/s; inhibition (INH) [18]: Not Active"
CCOC(=O)c1cccc(-c2cnc(N)c(N[C@H](C)c3ccccc3)n2)c1,> 100 µM,> 100 µM,–,–
C[C@@H](Nc1nc(-c2cccc(C(N)=O)c2)cnc1N)c1ccccc1,> 100 µM,> 100 µM,–,–
C[C@@H](Nc1nc(-c2cccc(C(=O)NS(C)(=O)=O)c2)cnc1N)c1ccccc1,> 100 µM,> 100 µM,> 100 µM,–
C[C@@H](Nc1nc(-c2ccnc(C(=O)O)c2)cnc1N)c1ccccc1,24 µM,32 µM,–,–
C[C@@H](Nc1nc(-c2ccccc2C(=O)O)cnc1N)c1ccccc1,> 100 µM,> 100 µM,> 100 µM,–
C[C@@H](Nc1nc(-c2ccc(C(=O)O)cc2)cnc1N)c1ccccc1,14 µM,–,–,–
C[C@@H](Nc1nc(-c2ccc(C(=O)O)c(O)c2)cnc1N)c1ccccc1,10 µM,–,–,–
C[C@@H](Nc1nc(-n2cc(C(=O)O)cn2)cnc1N)c1ccccc1,15 µM,–,15 µM,–
